Patent US8987248B2, “Substituted piperidines as Par-1 antagonists” (Bayer Intellectual Property GmbH, priority 2009, dated 2015)
Where a name gives a salt, the structure may show the parent alone.

Target: human protease activated receptor 1 (PAR-1) (Homo sapiens (Human), UniProt P25116)
Experiment: Cellular, functional in vitro test (aequorin luminescence, calcium release in recombinant HEK293 PAR-1 test cell)
Type: cell-based
Settings: HEK293-derived PAR-1 test cell line expressing aequorin; PAR-1 agonist added at its EC50, 5 min after test substance
Description: 1.a) Cellular, Functional In Vitro Test
A recombinant cell line is used to identify […] of the human protease activated receptor 1 (PAR-1) and to quantify the activity of the substances described herein. The cell is originally derived from a human embryonal kidney cell (HEK293; ATCC: American Type Culture Collection, Manassas, Va. 20108, USA). The test cell line constitutively expresses a modified form of the calcium-sensitive photoprotein aequorin which, after reconstitution with the cofactor coelenterazine, emits light when the free calcium concentration in the inner mitochondrial compartment is increased (Rizzuto R, Simpson A W, Brini M, Pozzan T.; Nature 1992, 358, 325-327). Additionally, the cell stably expresses the endogenous human PAR-1 receptor and the endogenous purinergic receptor P2Y2. The resulting PAR-1 test cell responds to stimulation of the endogenous PAR-1 or P2Y2 receptor with an intracellular release of calcium ions, which can be quantified through resulting aequorin luminescence with a suitable luminometer (Milligan G, Marshall F, Rees S, Trends in Pharmacological Sciences 1996, 17, 235-237).
For the testing of the substance specificity, the effect thereof after activation of the endogenous PAR-1 receptor is compared with the effect after activation of the endogenous purinergic P2Y2 receptor which utilizes the same intracellular signal path.
Two days (48 hours) before the assay, the cells are plated out in culture medium (DMEM F12, supplemented with 10% FCS, 2 mM glutamine, 10 mM HEPES, 1.4 mM pyruvate, 0.1 mg/ml gentamycin, 0.15% Na bicarbonate; BioWhittaker Cat. #BE04-687Q; B-4800 Verviers, Belgium) in 384-well microtitre plates and kept in a cell incubator (96% humidity, 5% v/v CO2, 37° C.). On the day of the test, the culture medium is replaced by a tyrode solution (in mM: 140 sodium chloride, 5 potassium chloride, 1 magnesium chloride, 2 calcium chloride, 20 glucose, 20 HEPES), which additionally contains the cofactor coelenterazine (25 μM) and glutathione (4 mM), and the microtitre plate is then incubated for a further 3-4 hours. The test substances are then pipetted onto the microtitre plate, and 5 minutes after the transfer of the test substances into the wells of the microtitre plate the plate is transferred into the luminometer, a PAR-1 agonist concentration which corresponds to the EC50 is added and the resulting light signal is immediately measured in the luminometer. To distinguish an antagonist substance action from a toxic action, the endogenous purinergic receptor is immediately subsequently activated with agonist (ATP, final concentration 10 μM) and the resulting light signal is measured.

Sequence of human protease activated receptor 1 (PAR-1) (P25116 22-425): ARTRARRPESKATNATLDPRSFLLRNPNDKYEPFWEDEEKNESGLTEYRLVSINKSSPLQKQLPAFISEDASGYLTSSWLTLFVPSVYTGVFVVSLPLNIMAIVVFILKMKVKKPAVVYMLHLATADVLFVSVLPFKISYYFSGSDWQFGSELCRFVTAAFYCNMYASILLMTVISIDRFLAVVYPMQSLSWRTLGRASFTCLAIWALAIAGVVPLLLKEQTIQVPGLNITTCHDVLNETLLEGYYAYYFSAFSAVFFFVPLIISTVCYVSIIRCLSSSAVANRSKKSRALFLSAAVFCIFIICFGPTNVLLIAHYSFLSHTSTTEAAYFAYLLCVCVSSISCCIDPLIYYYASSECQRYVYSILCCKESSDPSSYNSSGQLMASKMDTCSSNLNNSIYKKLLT

| Structure (SMILES) | IC50 |
| --- | --- |
| CCc1ccc(C2CC(C(=O)Nc3ccccc3)CN(C(=O)C(C)(C)CF)C2)cc1 (racemic) [Example 7, 5-(4-Ethylphenyl)-1-(3-fluoro-2,2-dimethylpropanoyl)-N-phenylpiperidine-3-carboxamide] | 29 nM |
| CCc1ccc(C2CC(C(=O)Nc3ccccc3)CN(C(=O)CCOC)C2)cc1 (racemic) [Example 8, 5-(4-Ethylphenyl)-1-(3-methoxypropanoyl)-N-phenylpiperidine-3-carboxamide] | 109 nM |
| CCc1ccc(C2CC(C(=O)Nc3ccccc3)CN(C(=O)C3(CC)COC3)C2)cc1 (racemic) [Example 18] | 483 nM |
| CCc1ccc(C2CC(C(=O)Nc3ccccc3)CN(C(=O)c3scnc3C)C2)cc1 (racemic) [Example 36] | 98.2 nM |
| CCc1ccc(C2CC(NC(=O)c3ccc(-c4cccc(C(F)(F)F)c4)cn3)CN(C(=O)C3CCCC3)C2)cc1 (racemic) [Example 83, N-[1-(Cyclopentylcarbonyl)-5-(4-ethylphenyl)piperidin-3-yl]-5-[3-(trifluoromethyl)phenyl]pyridine-2-carboxamide] | 19.7 nM |
| CCc1ccc(C2CC(NC(=O)C(C)(C)C)CN(C(=O)C3CCCC3)C2)cc1 (racemic) [Example 90, N-[1-(Cyclopentylcarbonyl)-5-(4-ethylphenyl)piperidin-3-yl]-2,2-dimethylpropanamide] | 359 nM |
| CCc1ccc(C2CC(NC(=O)Nc3ccccc3)CN(C(=O)N3CCCC3)C2)cc1 (racemic) [Example 91, N-[5-(4-Ethylphenyl)-1-(pyrrolidin-1-ylcarbonyl)piperidin-3-yl]-3-phenylurea] | 17.4 nM |
| CCc1ccc(C2CC(NC(=O)N(C)c3ccccc3)CN(C(=O)C3CCCC3)C2)cc1 (racemic) [Example 95, 3-[1-(Cyclopentylcarbonyl)-5-(4-ethylphenyl)piperidin-3-yl]-1-methyl-1-phenylurea] | 237 nM |
| CCc1ccc(C2CC(NC(=O)OC)CN(C(=O)N3CCOCC3)C2)cc1 (racemic) [Example 102, Methyl [5-(4-ethylphenyl)-1-(morpholin-4-ylcarbonyl)piperidin-3-yl]carbamate] | 165 nM |
| CCc1ccc(C2CC(NS(=O)(=O)Cc3ccccc3)CN(C(=O)C3CCCC3)C2)cc1 (racemic) [Example 104, N-[1-(Cyclopentylcarbonyl)-5-(4-ethylphenyl)piperidin-3-yl]-1-phenylmethanesulphonamide] | 248 nM |
| Cc1ccc(C2CC(NC(=O)c3ccccc3)CN(C(=O)C3(N)CCC3)C2)cc1C (racemic) [Example 119, N-{1-[(1-Aminocyclobutyl)carbonyl]-5-(3,4-dimethylphenyl)piperidin-3-yl}benzenecarboxamide hydrochloride] | 15.7 nM |
| O=C(NC1CC(c2ccc(C(F)(F)F)cc2)CN(C(=O)N2CCC(O)CC2)C1)c1ccccc1 (racemic) [Example 129, N-{1-[(4-Hydroxypiperidin-1-yl)carbonyl]-5-[4-(trifluoromethyl)phenyl]piperidin-3-yl}benzenecarboxamide] | 33.6 nM |
| C[C@@H]1CC[C@@H](C)N1C(=O)N1CC(NC(=O)c2ccccc2)CC(c2ccc(C(F)(F)F)cc2)C1 (mixture of isomers) [Example 133, N-(1-{[(2R,5R)-2,5-Dimethylpyrrolidin-1-yl]carbonyl}-5-[4-(trifluoromethyl)phenyl]piperidin-3-yl)benzenecarboxamide] | 14.6 nM |
| O=C(NC1CC(c2ccc(C(F)(F)F)cc2)CN(C(=O)N2CCS(=O)(=O)CC2)C1)c1ccccc1 (racemic) [Example 134, N-{1-[(1,1-Dioxidothiomorpholin-4-yl)carbonyl]-5-[4-(trifluoromethyl)phenyl]piperidin-3-yl}-benzenecarboxamide] | 15.4 nM |
| O=C1CN(C(=O)N2CC(NC(=O)c3ccccc3)CC(c3ccc(C(F)(F)F)cc3)C2)CCN1 (racemic) [Example 141, N-{1-[(3-Oxopiperazin-1-yl)carbonyl]-5-[4-(trifluoromethyl)phenyl]piperidin-3-yl}benzenecarboxamide] | 53.7 nM |
| Cc1cccc(C(=O)NC2CC(c3ccc(C(F)(F)F)cc3)CN(C(=O)N3CCOCC3)C2)n1 (racemic) [Example 162] | 25 nM |
| O=C(NC1CC(c2ccc(C(F)(F)F)cc2)CN(C(=O)N2CCC(O)CC2)C1)C1CCCC1 (racemic) [Example 170, N-{1-[(4-Hydroxypiperidin-1-yl)carbonyl]-5-[4-(trifluoromethyl)phenyl]piperidin-3-yl}cyclopentanecarboxamide] | 21.3 nM |
| O=C(NC1CC(c2ccc(OC(F)(F)F)cc2)CN(C(=O)c2ccncc2)C1)c1ccccc1 (single isomer, unassigned) [Example 115, N-{1-(Pyridin-4-ylcarbonyl)-5-[4-(trifluoromethoxy)phenyl]piperidin-3-yl}benzenecarboxamide] | 11.1 nM |
| O=C(NC1CC(c2ccc(C(F)(F)F)cc2)CN(C(=O)N2CCOCC2)C1)c1ccccc1 (single isomer, unassigned) [Example 128, N-{1-(Morpholin-4-ylcarbonyl)-5-[4-(trifluoromethyl)phenyl]piperidin-3-yl}benzenecarboxamide] | 17 nM |
| O=C(NC1CC(c2ccc(C(F)(F)F)cc2)CN(C(=O)N2CCC(O)CC2)C1)C1CCCC1 (single isomer, unassigned) [Example 177, N-{1-[(4-Hydroxypiperidin-1-yl)carbonyl]-5-[4-(trifluoromethyl)phenyl]piperidin-3-yl}cyclopentanecarboxamide] | 81 nM |
| N#CC1CCN(C(=O)N2CC(NC(=O)C3CCCC3)CC(c3ccc(C(F)(F)F)cc3)C2)CC1 (single isomer, unassigned) [Example 178, N-{1-[(4-Cyanopiperidin-1-yl)carbonyl]-5-[4-(trifluoromethyl)phenyl]piperidin-3-yl}cyclopentanecarboxamide] | 63 nM |
